Legend:
[1] = test system: lymphoma patient derived xenograft (PDX); experiment: Humanized NSG mice engrafted with lymphoma PDX: serum cytokines, body weight, tumor growth; format: in vivo
Experimental: Humanized NSG mice were engrafted with a lymphoma PDX (5 million cells, s.c.). When tumors reached 200 mm^3, mice were randomized in groups of 8 or 7 based on their tumor size. They were treated with vehicle (i.v.), 0.5 mg/kg CD19-TCB (i.v.) as a monotherapy, 20 mg/kg dasatinib (p.o.) alone or in combination with 0.5 mg/kg CD19-TCB (i.v.). The serum of each mouse in the vehicle, CD19-TCB, and CD19-TCB+dasatinib groups and of n=4 mice in the dasatinib group was collected by tail-vein bleeding 6 hrs after the first treatment with CD19-TCB.
Cytokine levels in each individual mouse from the experiment described in FIG. 37. The levels of IFN-γ (A), TNF-α (B), IL-2 (C) and IL-6 (D) were measured in the serum by multiplex cytokine analysis using Luminex. Mean of n=6-8 mice+/−SEM with *p≤0.05, **p≤0.01, ***p≤0.001 by 1 way ANOVA (Kruskal Wallis test).
Body weight loss for each individual mouse from the experiment described in FIG. 37. The change in body weight [%] is measured as a percentage of the body weight before first treatment with CD19-TCB for each mouse. Box and whiskers showing minimum to maximum values of n=6-8 mice per group.
Tumor growth curves of the experiment described in FIG. 37. Tumor growth curves were plotted from tumor volumes measured using a Caliper, mean of n=6-8 mice+SD with **p≤0.01 by 1 way ANOVA (Kruskal Wallis test).
We evaluated the impact of transient interventions with dasatinib on CD19-TCB anti-tumor activity in humanized NSG mice engrafted with a lymphoma patient derived xenograft (PDX). Therefore, mice were treated with either vehicle, 0.5 mg/kg CD19-TCB as a monotherapy, or 20 mg/kg dasatinib, alone or in combination with 0.5 mg/kg CD19-TCB (FIG. 37). Dasatinib was given one hour prior and 6 hrs after the first treatment with CD19-TCB and then twice per day for the next 2 days to prevent cytokine release, predominantly occurring upon the first infusion. Moreover, dasatinib was also administered one hour before each subsequent treatment to prevent eventual residual cytokine secretion (FIG. 37).

MKN45 NLR target cells = experiment: Incucyte real time killing assay, PBMCs + MKN45 NLR target cells + CEA-TCB with escalating dasatinib; format: cell-based, human
Experimental: (§1) FIG. 1. Real time killing of red fluorescent A375 cells loaded with RMF peptides by 10 nM HLA-A2 WT-1-TCB (A) and of red fluorescent MKN45 cells by 1 nM CEA-TCB (B) in the presence of different dasatinib concentrations ranging from 100 nM to 0 nM. (A) A375 NucLight Red (NLR) target cells were pulsed with RMF peptides (2 hours before killing assay) and co-cultured with HLA-A2 WT1-TCB, dasatinib (dasa) and PBMCs, effector to target ratio (E:T)=10:1 (E:T=50 000 PBMCs:5000 target cells). Killing was followed by Incucyte® (1 scan every 3 hours, zoom 10×, phase and red 400 ms acquisition time). % Killing was measured by normalizing total red area with values at t=0 hour and target cells+PBMCs+dasatinib (without TCB) control wells for each time point. Means of technical replicates+/−SEM for 1 donor. (B) MKN45 NLR target cells were co-cultured with CEA TCB, dasatinib and PBMCs, E:T=10:1 (E:T=50 000 PBMCs:5000 target cells). Killing was followed by Incucyte (1 scan every 3 hours, zoom 10×, phase and red 400 ms acquisition time). % Killing was measured by normalizing total red area with values at t=0 hour and target cells+PBMCs+dasatinib control wells for each time point. Means of technical replicates+/−SEM for 1 donor.
(§2) To assess the inhibitory effect of dasatinib on TCB-mediated target-cell killing, we conducted killing assays using peripheral blood mononuclear cells (PBMCs), NucLight Red (NLR) target-cells and respective TCB in media supplemented with escalating concentrations of dasatinib. The Incucyte® system (Essen Bioscience) was used to capture the loss of red fluorescent protein signal over time as a readout of target-cell killing.

[2] = test system: IFN-γ, IL-2 and TNF-α release; experiment: Cytokine levels in supernatants of the reversibility assay (Luminex); format: cell-based, human
Experimental: FIG. 18. […] Cytokines ((A) IFN-γ, (B) IL-2, (C) TNF-α) were measured with a multiplex cytokine kit (Luminex technology). 1 donor.
FIG. 20. Cytokine levels in the supernatants of the assay after first stimulation in the absence of 25 nM dasatinib and after second stimulation in the presence of 25 nM dasatinib, in the assay of FIG. 16 (“ON/OFF”). Cytokines ((A) IFN-γ, (B) IL-2, (C) TNF-α) were measured with a multiplex cytokine kit (Luminex technology). 1 donor.
FIG. 22. Cytokine release. Supernatants were collected after first and second stimulation in the assay of FIG. 16 and cytokines ((A) TNF-α, (B) IFN-γ, (C) IL-2) measured using a multiplex cytokine kit (Luminex).
We then verified if dasatinib's effect is reversible upon its removal. Therefore we set-up a killing assay with two and three stimulations in the presence and absence of dasatinib and followed the killing kinetics using an Incucyte® system (FIG. 16). After each stimulation, effector cells were washed and re-stimulated on fresh MKN45 NLR target cells with 1 nM CEA TCB in the presence and absence of dasatinib allowing to mimic OFF/ON switch and ON/OFF/ON switch.
Lastly, we evaluated if the effect of dasatinib was reversible on activated T cells. Consequently, we supplemented the media with 25 nM dasatinib upon the second stimulation with 1 nM CEA-TCB to prevent killing from activated T cells and then removed the dasatinib upon third stimulation with 1 nM CEA-TCB to verify if killing would be restored.
We were curious to see if low doses of dasatinib could prevent cytokine release while minimally affecting TCB-efficacy upon first stimulation. In killing assays as described in FIG. 16, the cytokine levels upon first treatment with 1 nM CEA-TCB in the presence of 6.25 nM and 12.5 nM dasatinib and upon second treatment with 1 nM CEA-TCB in the absence of dasatinib were measured in the supernatants.

[3] = test system: A375 NucLight Red (NLR) target cells; experiment: Incucyte real time killing assay, PBMCs + RMF peptide-pulsed A375 NLR target cells + HLA-A2 WT1-TCB with escalating dasatinib; format: cell-based, human
Experimental: as §1, §2

With `Cc1nc(Nc2ncc(C(=O)Nc3c(C)cccc3Cl)s2)cc(N2CCN(CCO)CC2)n1` [dasatinib, N-(2-chloro-6-methylphenyl)-2-[[6-[4-(2-hydroxyethyl)-1-piperazinyl]-2-methyl-4-pyrimidinyl]amino]-5-thiazole carboxamide monohydrate] the “CD19-TCB-mediated cytokine release (IFN-γ, TNF-α, IL-2, IL-6) upon the first infusion” value ([1]; 20 mg/kg dasatinib p.o. + 0.5 mg/kg CD19-TCB i.v., serum 6 hrs) was “strongly reduced”, the body weight change ([1]; 24 hrs after the first CD19-TCB treatment, 20 mg/kg dasatinib) was “milder body weight change” and the “interference with CD19-TCB anti-tumor efficacy (tumor growth curves)” value ([1]; transient use of 20 mg/kg dasatinib with 0.5 mg/kg CD19-TCB) was “minimally, yet not significantly, interfered”. For the same compound, the inhibition at 0.0125 µM (MKN45 NLR target cells; Homo sapiens, MKN-45, 12.5 nM dasatinib, 1 nM CEA-TCB, read-out: inhibition of target-cell killing) was 69%, the inhibition at 0.05 µM (MKN45 NLR target cells; Homo sapiens, MKN-45, 50 nM (24.4 ng/mL) dasatinib, 1 nM CEA-TCB, read-out: inhibition of target-cell killing) was 88.2% and the inhibition at 0.1 µM (MKN45 NLR target cells; Homo sapiens, MKN-45, 100 nM (48.8 ng/mL) dasatinib, 1 nM CEA-TCB, read-out: inhibition of target-cell killing) was 90.4%. For the same compound, the “threshold in vitro concentration for preventing T cell mediated target-cell lysis” value (MKN45 NLR target cells; PBMCs stimulated with both TCB (CEA-TCB, HLA-A2 WT-1-TCB)) was 12.5 nM, the inhibition of killing (MKN45 NLR target cells; dasatinib concentrations below 12.5 nM, 1 nM CEA-TCB) was “only partially inhibited killing” and the “release of IFN-γ, IL-2 and TNF-α during first stimulation” value ([2]; 6.25 nM and 12.5 nM dasatinib, 1 nM CEA-TCB) was “lowered the release”. The “release of IFN-γ, IL-2 and TNF-α (ON/OFF)” value ([2]; 25 nM dasatinib upon second stimulation, 1 nM CEA-TCB) was “prevented the release”, the “T-cell derived cytokine release (IFN-γ, IL-2, TNF-α) after first stimulation” value ([2]; 25 nM dasatinib, 1 nM CEA-TCB) was “full inhibition” and the “levels of TNF-α, IL-2 and IFN-γ during second stimulation” value ([2]; dasatinib (6.25 nM, 12.5 nM) removed) was “remained low”. For the same compound, the “release of IFN-γ, IL-2 and TNF-α after removal of dasatinib and restimulation” value ([2]; removal of 25 nM dasatinib, restimulation with 1 nM CEA-TCB) was “T cell functionality was restored upon dasatinib removal”, the inhibition at 0.0125 µM ([3]; Homo sapiens, A-375, 12.5 nM dasatinib, 10 nM HLA-A2 WT-1-TCB, read-out: inhibition of target-cell killing) was 78.2% and the inhibition at 0.05 µM ([3]; Homo sapiens, A-375, 50 nM (24.4 ng/mL) dasatinib, 10 nM HLA-A2 WT1-TCB, read-out: inhibition of target-cell killing) was 89%. For the same compound, the inhibition at 0.1 µM ([3]; Homo sapiens, A-375, 100 nM (48.8 ng/mL) dasatinib, 10 nM HLA-A2 WT1-TCB, read-out: inhibition of target-cell killing) was 86.5% and the inhibition of killing ([3]; dasatinib concentrations below 12.5 nM, 10 nM HLA-A2 WT-1-TCB) was “only partially inhibited killing”.
